{"source": "patent US10959993B2", "about": "“Combination of Bcl-2 inhibitor and MEK inhibitor for the treatment of cancer” (Genentech, Inc., priority 2015, dated 2021)", "key": {"AML cell lines [1]": {"test_system": "AML cell lines", "test": "Reverse phase protein array (RPPA) of sensitive v. resistant cell lines", "type": "cell-based", "parameters": "p16INK4a Mean. Res / p16INK4a Mean. Sens / p53 Mean. Res / p53 Mean. Sens / Bax Mean. Res / Bax Mean. Sens / Bim Mean. Res / Bim Mean. Sens / bRaf (T401) Mean. Res / bRaf (T401) Mean. Sens / Bcl-2 Mean. Res / Bcl-2 Mean. Sens: unit not given here", "procedure": "(§1) Representative proteins that are differentially expressed between combination-sensitive and combination-resistant cells were shown. (FIG. 3E) The Bcl-2:BIM complex was measured by the MSD ELISA assay in AML cell lines, untreated, treated with venetoclax alone, treated with cobimetinib alone, or treated with cobimetinib/venetoclax at 1×IC50 values for 4 hrs.\n(§2) Ongoing analysis of pharmacodynamic markers include transcriptome assessment by RNA sequencing, functional proteomics by reverse phase protein array (RPPA), and quantification of Bcl-2:BIM and MCL-1:BIM complexes using the electrochemiluminescent ELISA assay (Meso Scale Discovery, MSD-ELISA). RPPA is a high-throughput technology that performs protein assays on thousands of samples simultaneously. This protein array platform measures levels of protein expression, as well as protein modifications such as phosphorylation."}, "primary AML blasts": {"test_system": "primary AML blasts", "test": "Long-term culture of primary AML blasts: apoptosis and growth inhibition by flow cytometry", "type": "cell-based", "conditions": "AML 4366894", "experimental": "(FIG. 2A) Primary AML peripheral blood mononuclear cells were cultured in serum-Free Expansion Medium (SFEM) supplemented with BIT 9500 Serum Substitute and cytokines including stem cell factor (100 ng/ml), Flt3 ligand (50 ng/ml), IL-3 (20 ng/ml) and G-CSF (20 ng/ml) as well as SRI (1 μM). After culture for 5 days, cells were stained with CD45-PE, Annexin-V-APC and DAPI−. The apoptotic leukemia blasts (CD45dimAnnexin-V+) were determined by flow cytometry. Results were expressed as percentage of specific apoptosis calculated by the formula: 100×(% apoptosis of treated cells−% apoptosis of control cells)/(100−% apoptosis of control cells), or % growth inhibition of control using the viable cell counts determined by Annexin-/DAPI. […] MNCs isolated from patients with AML (100,000) or healthy donors (50,000) were plated in methylcellulose medium (1 mL/well; Cat. 04435; [sequence] Technologies Inc., Vancouver, BC, Canada) in triplicate per condition. Colonies were scored after 2 weeks of culture."}, "MOLM13-luci-GFP cells": {"test_system": "MOLM13-luci-GFP cells", "test": "MOLM13-luci-GFP AML model in NSGS mice", "type": "in vivo", "conditions": "cobimetinib 10 mg/kg, venetoclax 100 mg/kg orally daily for 14 days, compared to controls, more prominently in venetoclax and co-treated mice", "procedure": "(§3) OCI-AML3/Luc/GFP cells (1×10^6 per mouse) were injected intravenously into NSG mice. (FIG. 5A) The luciferase intensity was quantified by serial bioluminescence imaging from 8 representative mice from 4 groups at week 5 post injection. (FIG. 5B) Overall survival rate in each group was estimated by the Kaplan-Meier method. 1×10^6 MOLM13-luci-GFP cells were injected into NSGS mice. Leukemia engraftment was confirmed on day 3 using Bioluminescence imaging (BLI). Mice were orally dosed daily with cobimetinib (10 mg/kg) or venetoclax (100 mg/kg) or in combination for 14 days. Luciferase intensity was shown on day 17 (FIG. 5C). Human CD45 engraftment in BM and spleen was determined by CyTOF. (FIG. 5D). The viable cell count was measured using Vi-Cell. (FIG. 5E). * *P: 0.01, ***P: 0.001.\n(§4) We next investigated signaling patterns and Bcl-2 family protein expression in AML stem/progenitor cells using a 34-antibody panel and time-of-flight mass cytometry (CyTOF). CyTOF is a variation of flow cytometry in which antibodies are labeled with heavy metal ion tags rather than fluorochromes. Readout is by time-of-flight mass spectrometry. This allows for the combination of many more antibody specificities in single samples, without significant spillover between channels. […]"}, "AML cell lines [2]": {"test_system": "AML cell lines", "test": "CellTiter-Glo in vitro cytotoxicity / growth inhibition, 72 hrs", "type": "cell-based", "conditions": "MOLM14, OCI-AML3, NB4 and THP1", "experimental": "(FIG. 1A) The AML cell lines were treated with cobimetinib or venetoclax at 0.001, 0.01, 0.1 and 1.0 μM for 72 hrs. Calcusyn software was used to calculate the IC50 values and combination index (CI) based on the luminescent intensity that correlated with number of viable cells determined by the CellTiter-Glo assay.\nThe activity of 4-(4-{[2-(4-chlorophenyl)-4,4-dimethylcyclohex-1-en-1-yl]methyl}piperazin-1-yl)-N-({3-nitro-4-[(tetrahydro-2H-pyran-4-ylmethyl)amino]phenyl}sulfonyl)-2-(1H-pyrrolo[2,3-b]pyridin-5-yloxy)benzamide (ABT-199, or venetoclax) and [3,4-Difluoro-2-(2-fluoro-4-iodoanilino)phenyl]{3-hydroxy-3-[(2S)-piperidin-2-yl]azetidin-1-yl}methanone (cobimetinib) was examined in a panel of myeloid leukemia cell lines with diverse genetic alterations."}, "Bcl-2:BIM complex": {"target": "T1, Bcl-2:BIM complex (Homo sapiens, UniProt P10415)", "T1 construct": "endogenous in cells; host or cells: AML cell lines (OCI-AML3 is the only one named for this read-out)", "T1 sequence (P10415 whole entry, one chain of several)": "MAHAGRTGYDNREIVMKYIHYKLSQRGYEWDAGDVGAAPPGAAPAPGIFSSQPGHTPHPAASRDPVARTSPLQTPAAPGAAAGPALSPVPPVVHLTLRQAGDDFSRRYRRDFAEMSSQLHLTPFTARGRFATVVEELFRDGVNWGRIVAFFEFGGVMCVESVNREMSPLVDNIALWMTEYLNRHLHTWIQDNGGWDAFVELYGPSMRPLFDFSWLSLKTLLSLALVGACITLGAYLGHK", "test": "MSD ELISA of Bcl-2:BIM complex", "type": "cell-based", "conditions": "1×IC50, 4 hrs, preliminary MSD data", "procedure": "as §1, §2\nRepresentative proteins that are differentially expressed in sensitive and resistant cell lines to the combination. (FIGS. 3A, 3B, 3C, and 3D). […] (FIG. 3E)."}, "OCI-AML3/Luc/GFP cells": {"test_system": "OCI-AML3/Luc/GFP cells", "test": "OCI-AML3/Luc/GFP AML model in NSG mice", "type": "in vivo", "conditions": "compared to controls, more prominently in cobimetinib single agent and co-treated mice", "procedure": "as §3, §4"}, "[3]": {"test_system": "AML stem/progenitor cells from primary AML", "test": "Mass cytometry (CyTOF) of intracellular signaling proteins", "type": "cell-based", "procedure": "Mononuclear cells from primary AML were treated with cobimetinib at 1.0 μM for 2 hrs followed by 10 minutes plus or minus stimulation with G-CSF (100 ng/ml). The SPADE tree was generated using markers including CD7, CD117, CD123, CD64, CD34, CD26, CD45, TIM3, CD33, CD19, CD56, CD2, CD15, CD41, CD38, CD166, CD3, CD90, CD11b, CD135 and HLA-DR. FIG. 4A depicts representative markers from among those markers tested. The grey-scale color represents the expression levels of each indicated protein. (FIG. 4A) Bcl-2 family members at baseline in the gated stem/progenitor AML cell populations (AML4295468: CD34+CD38+CD123+CD33+; AML 4366894: CD34+CD38-CD123+CD33+). (FIG. 4B) The median intensity of each protein in the gated cell populations mentioned above. (FIG. 4C) The intracellular signaling protein activation in the gated populations mentioned above.\nWe next investigated signaling patterns and Bcl-2 family protein expression in AML stem/progenitor cells using a 34-antibody panel and time-of-flight mass cytometry (CyTOF). CyTOF is a variation of flow cytometry in which antibodies are labeled with heavy metal ion tags rather than fluorochromes. Readout is by time-of-flight mass spectrometry. This allows for the combination of many more antibody specificities in single samples, without significant spillover between channels. […] (FIG. 4A). […] To test the efficacy of both compounds in vivo, we injected NSG mice with genetically engineered OCI-AML3/Luc/GFP cells. […] (FIGS. 5A and 5B). To further explore the anti-leukemia efficacy of both compounds, we injected NSGS mice with genetically engineered […] cells."}, "[4]": {"conditions": "cell lines resistant to venetoclax"}, "[5]": {"conditions": "cell lines sensitive to venetoclax"}, "[6]": {"conditions": "cell lines resistant to cobimetinib"}, "[7]": {"conditions": "cell lines sensitive to cobimetinib"}}}
{"smiles": "CC1(C)CCC(CN2CCN(c3ccc(C(=O)NS(=O)(=O)c4ccc(NCC5CCOCC5)c([N+](=O)[O-])c4)c(Oc4cnc5[nH]ccc5c4)c3)CC2)=C(c2ccc(Cl)cc2)C1", "note": "[venetoclax, 4-(4-{[2-(4-chlorophenyl)-4,4-dimethylcyclohex-1-en-1-yl]methyl}piperazin-1-yl)-N-({3-nitro-4-[(tetrahydro-2H-pyran-4-ylmethyl)amino]phenyl}sulfonyl)-2-(1H-pyrrolo[2,3-b]pyridin-5-yloxy)benzamide]", "values": [{"measurement": "Bax Mean. Res", "setting": "AML cell lines [1]; [4]", "value": 0.958}, {"measurement": "Bcl-2 Mean. Res", "setting": "AML cell lines [1]; [4]", "value": 0.817}, {"measurement": "Bim Mean. Res", "setting": "AML cell lines [1]; [4]", "value": 1.143}, {"measurement": "PTEN (S380) Mean. Res", "setting": "AML cell lines [1]; [4]", "value": 0.839}, {"measurement": "PTEN Mean. Res", "setting": "AML cell lines [1]; [4]", "value": 0.704}, {"measurement": "S6 (S240/244) Mean. Res", "setting": "AML cell lines [1]; [4]", "value": 1.918}, {"measurement": "bRaf (T401) Mean. Res", "setting": "AML cell lines [1]; [4]", "value": 1.263}, {"measurement": "p16INK4a Mean. Res", "setting": "AML cell lines [1]; [4]", "value": 1.989}, {"measurement": "Bax Mean. Sens", "setting": "AML cell lines [1]; [5]", "value": 1.227}, {"measurement": "Bcl-2 Mean. Sens", "setting": "AML cell lines [1]; [5]", "value": 1.081}, {"measurement": "Bim Mean. Sens", "setting": "AML cell lines [1]; [5]", "value": 0.811}, {"measurement": "PTEN (S380) Mean. Sens", "setting": "AML cell lines [1]; [5]", "value": 1.369}, {"measurement": "PTEN Mean. Sens", "setting": "AML cell lines [1]; [5]", "value": 1.495}, {"measurement": "S6 (S240/244) Mean. Sens", "setting": "AML cell lines [1]; [5]", "value": 1.571}, {"measurement": "bRaf (T401) Mean. Sens", "setting": "AML cell lines [1]; [5]", "value": 0.927}, {"measurement": "p16INK4a Mean. Sens", "setting": "AML cell lines [1]; [5]", "value": 1.593}, {"measurement": "sensitivity of primary AML sample", "setting": "primary AML blasts", "value": "resistant"}, {"measurement": "leukemia burden by bioluminescent imaging", "setting": "MOLM13-luci-GFP cells", "value": "significantly reduced leukemia burden"}, {"measurement": "sensitivity of cell lines to single agent", "setting": "AML cell lines [2]", "value": "resistant"}, {"measurement": "Bcl-2:BIM complex", "setting": "Bcl-2:BIM complex; AML cell lines", "value": "disrupted by venetoclax in most cell lines"}]}
{"smiles": "O=C(c1ccc(F)c(F)c1Nc1ccc(I)cc1F)N1CC(O)([C@@H]2CCCCN2)C1", "note": "[cobimetinib, [3,4-difluoro-2-(2-fluoro-4-iodoanilino)phenyl]{3-hydroxy-3-[(2S)-piperidin-2-yl]azetidin-1-yl}methanone]", "values": [{"measurement": "Bax Mean. Res", "setting": "AML cell lines [1]; [6]", "value": 1.010}, {"measurement": "Bim Mean. Res", "setting": "AML cell lines [1]; [6]", "value": 0.893}, {"measurement": "ERK 1/2 (T202/Y204) Mean. Res", "setting": "AML cell lines [1]; [6]", "value": 1.073}, {"measurement": "FLT3 (Y589/591) Mean. Res", "setting": "AML cell lines [1]; [6]", "value": 0.948}, {"measurement": "PTEN (S380) Mean. Res", "setting": "AML cell lines [1]; [6]", "value": 1.049}, {"measurement": "PTEN Mean. Res", "setting": "AML cell lines [1]; [6]", "value": 1.013}, {"measurement": "RSK3 (T356/S360) Mean. Res", "setting": "AML cell lines [1]; [6]", "value": 0.859}, {"measurement": "S6 (S235/236) Mean. Res", "setting": "AML cell lines [1]; [6]", "value": 0.748}, {"measurement": "p16INK4a Mean. Res", "setting": "AML cell lines [1]; [6]", "value": 2.220}, {"measurement": "p38MAP (T180/Y182) Mean. Res", "setting": "AML cell lines [1]; [6]", "value": 0.983}, {"measurement": "p53 Mean. Res", "setting": "AML cell lines [1]; [6]", "value": 0.939}, {"measurement": "Bax Mean. Sens", "setting": "AML cell lines [1]; [7]", "value": 1.307}, {"measurement": "Bim Mean. Sens", "setting": "AML cell lines [1]; [7]", "value": 1.175}, {"measurement": "ERK 1/2 (T202/Y204) Mean. Sens", "setting": "AML cell lines [1]; [7]", "value": 1.988}, {"measurement": "FLT3 (Y589/591) Mean. Sens", "setting": "AML cell lines [1]; [7]", "value": 1.256}, {"measurement": "PTEN (S380) Mean. Sens", "setting": "AML cell lines [1]; [7]", "value": 1.335}, {"measurement": "PTEN Mean. Sens", "setting": "AML cell lines [1]; [7]", "value": 1.361}, {"measurement": "RSK3 (T356/S360) Mean. Sens", "setting": "AML cell lines [1]; [7]", "value": 1.495}, {"measurement": "S6 (S235/236) Mean. Sens", "setting": "AML cell lines [1]; [7]", "value": 1.174}, {"measurement": "p16INK4a Mean. Sens", "setting": "AML cell lines [1]; [7]", "value": 1.184}, {"measurement": "p38MAP (T180/Y182) Mean. Sens", "setting": "AML cell lines [1]; [7]", "value": 1.275}, {"measurement": "p53 Mean. Sens", "setting": "AML cell lines [1]; [7]", "value": 1.373}, {"measurement": "leukemia burden by bioluminescent imaging (BLI)", "setting": "OCI-AML3/Luc/GFP cells", "value": "significantly reduced leukemia burden"}, {"measurement": "Bcl-2:BIM complex", "setting": "Bcl-2:BIM complex; AML cell lines", "value": "but not cobimetinib disrupted"}, {"measurement": "Bcl-2:BIM complex", "setting": "Bcl-2:BIM complex; OCI-AML3 cells", "value": "accumulated"}, {"measurement": "G-CSF-evoked p-STAT3/5", "setting": "[3]; AML 4295468, 1.0 μM for 2 hrs", "value": "only slightly reduced"}, {"measurement": "SCF-induced p-AKT", "setting": "[3]; AML 4295468, 1.0 μM for 2 hrs", "value": "only slightly reduced"}, {"measurement": "basal and G-CSF- or SCF-stimulated p-ERK", "setting": "[3]; AML 4295468, 1.0 μM for 2 hrs", "value": "efficiently down-regulated"}, {"measurement": "G-CSF-induced p-STAT3/5", "setting": "[3]; AML 4366894, 1.0 μM for 2 hrs", "value": "not significantly changed"}, {"measurement": "p-ERK", "setting": "[3]; AML 4366894, 1.0 μM for 2 hrs", "value": "also reduced"}, {"measurement": "phosphorylation of STATS pathway", "setting": "[3]; primary AML, 1.0 μM for 2 hrs", "value": "increased phosphorylation"}]}
